Measurements published in patent publication US20260297105A1, “RAF-MEK PROTEIN COMPLEX MODULATORS AND METHODS OF USE THEREOF” (GANDEEVA THERAPEUTICS, INC., priority 2023, published 2026).

Target: T1, MEK1 (Homo sapiens, UniProt Q02750)
T1 construct: purchased SignalChem M02-14H
Assay: MEK1 kinase cascade assay (ADP-Glo), inhibition of MEK1 kinase activity
Type: biochemical
Conditions: 25 nM BRAF, 6.25 nM MEK1, 0.5 μM ERK, 1 mM ATP; 20 min preincubation, 1 hr at 25° C.; read-out: BRAF ADP Glo kinase assay V3 (IC50)
Description: Protein expression and purification: BRAF (445-723) with N-term His-tag and C-term StrepII tag was expressed using the Expi293 system (ThermoFisher) and purified using Strep-Tactin® XT-Superflow (IBA) chromatography. ERK1 (full-length) with N-term His-tag was expressed in Rosetta DE3 cells (Millipore) and purified using HisTrap HP (Cytiva) and Superdex 200 (Cytiva) column chromatography. Full-length MEK1 for TR-FRET assays with N-term His-tag was expressed in BL21DE3 cells (ThermoFisher) and purified using HisTrap HP (Cytiva) and Superdex 200 (Cytiva) column chromatography.
Efficacy of exemplary compounds in inhibition of MEK1 kinase activity: The effect of compound MEK1 inhibition was evaluated using an ADP detection system for kinases, such as the ADP-Glo assay (Promega). The MEK1 kinase cascade assay consisted of 9 μL reaction volumes in 384-well white, opaque Optiplates (PerkinElmer). Compounds were prepared from DMSO stocks in assay buffer (10 mM HEPES pH 7.5, 5 mM MgCl2, 2 mM CHAPS, and 1 mM DTT) and preincubated with 25 nM BRAF for 20 mins at 25° C. prior to addition of 6.25 nM MEK1/0.5 μM ERK/1 mM ATP premix to initiate the kinase reaction. Both BRAF and ERK1 were produced in-house, and MEK1 was purchased from SignalChem (M02-14H). DMSO was kept constant at a final concentration of 1%. After a 1 hr incubation at 25° C., conversion of ATP to ADP was detected using ADP-Glo™ reagents according to the manufacturer's protocol. Luminescence was measured using a CLARIOstar microplate reader (BMG). Percent (%) Inhibition was calculated by normalizing to DMSO control (max) and 1 μM Trametinib (min). % inhibition as a function of compound concentration from 2 replicate wells was fit with a 4-parameter logistic curve equation using GraphPad Prism or CDD Vault to derive IC50 values.
In this table, for the BRAF ADP Glo kinase assay, “A” indicates IC50 of less than 5 nM; “B” indicates IC50 of between 5 nM to 50 nM; and “C” indicates IC50 of between 50 nM to 500 nM. “D” indicates IC50 of greater than 500 nM. For the BRAF-MEK TR-FRET assay, “A” indicates EC50 of less than 50 nM; “B” indicates EC50 of between 50 nM to 200 nM; and “C” indicates EC50 of between 200 nM to 1 μM. “D′” indicates EC50 of greater than 1 μM. For the AlphaLisa P-ERK assay, “A” indicates IC50 of less than 1 nM; “B” indicates IC50 of between 1 nM to 10 nM; and “C” indicates IC50 of between 10 nM to 100 nM. “D” indicates IC50 of greater than 100 nM. For the cell viability assay, “A” indicates IC50 of less than 1 nM; “B” indicates IC50 of between 1 nM to 10 nM; and “C” indicates IC50 of between 10 nM to 100 nM. “D” indicates IC50 of greater than 100 nM.

T1 sequence (Q02750 whole entry): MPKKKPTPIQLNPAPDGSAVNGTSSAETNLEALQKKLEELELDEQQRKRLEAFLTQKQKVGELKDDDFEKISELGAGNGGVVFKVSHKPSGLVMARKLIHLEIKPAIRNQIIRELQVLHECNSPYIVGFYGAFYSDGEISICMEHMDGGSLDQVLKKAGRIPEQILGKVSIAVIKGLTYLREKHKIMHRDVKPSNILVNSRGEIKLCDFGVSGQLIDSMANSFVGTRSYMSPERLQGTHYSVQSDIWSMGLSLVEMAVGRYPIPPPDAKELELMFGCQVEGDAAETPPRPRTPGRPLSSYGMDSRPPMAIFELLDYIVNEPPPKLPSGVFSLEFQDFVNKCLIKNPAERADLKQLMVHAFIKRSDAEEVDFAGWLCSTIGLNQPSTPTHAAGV
T1 sequence (P15056 445-723 partner limits assumed): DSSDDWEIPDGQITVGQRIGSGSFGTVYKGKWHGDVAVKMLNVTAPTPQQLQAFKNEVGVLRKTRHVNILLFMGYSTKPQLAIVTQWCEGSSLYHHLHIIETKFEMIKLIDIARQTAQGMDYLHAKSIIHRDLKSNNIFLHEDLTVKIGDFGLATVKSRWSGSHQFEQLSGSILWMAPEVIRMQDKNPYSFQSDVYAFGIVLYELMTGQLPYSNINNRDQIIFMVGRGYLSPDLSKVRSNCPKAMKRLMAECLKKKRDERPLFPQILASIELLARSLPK

SMILES | IC50 [nM]
C[C@@H]1c2c(F)cc(Oc3cccnn3)cc2OC(=O)N1Cc1cccc(NS(=O)(=O)C2CC2)c1F (single isomer, unassigned) [Compound 54] | 50 to 500
CNS(=O)(=O)Nc1cccc(CN2C(=O)Oc3cc(Oc4ncco4)c(F)cc3[C@@H]2C)c1F (single isomer, unassigned) [Compound 84, (S)-6-fluoro-3-({2-fluoro-3-(methylsulfamoyl)amino]phenyl}methyl)-4-methyl-7-(1,3-oxazol-2-yloxy)-3,4-dihydro-2H-1,3-benzoxazin-2-one or (R)-6-fluoro-3-({2-fluoro-3-(methylsulfamoyl)amino]phenyl}methyl)-4-methyl-7-(1,3-oxazol-2-yloxy)-3,4-dihydro-2H-1,3-benzoxazin-2-one] | 5 to 50
CNS(=O)(=O)Nc1cccc(CN2C(=O)Oc3cc(Oc4ncco4)cc(F)c3[C@H]2C)c1F (single isomer, unassigned) [Compound 87, (R)-5-fluoro-3-({2-fluoro-3-(methylsulfamoyl)amino]phenyl}methyl)-4-methyl-7-(1,3-oxazol-2-yloxy)-3,4-dihydro-2H-1,3-benzoxazin-2-one or (S)-5-fluoro-3-({2-fluoro-3-(methylsulfamoyl)amino]phenyl}methyl)-4-methyl-7-(1,3-oxazol-2-yloxy)-3,4-dihydro-2H-1,3-benzoxazin-2-one] | 50 to 500
CNS(=O)(=O)Nc1cccc(CN2C(=O)Oc3c(ccc(Oc4ncco4)c3F)[C@H]2C)c1F (single isomer, unassigned) [Compound 90, (R)-8-fluoro-3-({2-fluoro-3-(methylsulfamoyl)amino]phenyl}methyl)-4-methyl-7-(1,3-oxazol-2-yloxy)-3,4-dihydro-2H-1,3-benzoxazin-2-one or (S)-8-fluoro-3-({2-fluoro-3-(methylsulfamoyl)amino]phenyl}methyl)-4-methyl-7-(1,3-oxazol-2-yloxy)-3,4-dihydro-2H-1,3-benzoxazin-2-one] | 5 to 50
CNS(=O)(=O)Nc1cccc(CN2C(=O)Oc3c(ccc(Oc4ncccn4)c3F)[C@@H]2C)c1F (single isomer, unassigned) [Compound 92, (S)-8-fluoro-3-({2-fluoro-3-(methylsulfamoyl)amino]phenyl}methyl)-4-methyl-7-(pyrimidin-2-yloxy)-3,4-dihydro-2H-1,3-benzoxazin-2-one or (R)-8-fluoro-3-({2-fluoro-3-(methylsulfamoyl)amino]phenyl}methyl)-4-methyl-7-(pyrimidin-2-yloxy)-3,4-dihydro-2H-1,3-benzoxazin-2-one] | 5 to 50
CNS(=O)(=O)Nc1cccc(CN2C(=O)Oc3c(ccc(Oc4ncccn4)c3F)[C@H]2C)c1F (single isomer, unassigned) [Compound 93, (R)-8-fluoro-3-({2-fluoro-3-(methylsulfamoyl)amino]phenyl}methyl)-4-methyl-7-(pyrimidin-2-yloxy)-3,4-dihydro-2H-1,3-benzoxazin-2-one or (S)-8-fluoro-3-({2-fluoro-3-(methylsulfamoyl)amino]phenyl}methyl)-4-methyl-7-(pyrimidin-2-yloxy)-3,4-dihydro-2H-1,3-benzoxazin-2-one] | 5 to 50
CNS(=O)(=O)Nc1cccc(CN2C(=O)Oc3cc(Oc4ncco4)cnc3[C@H]2C)c1F (stereo in doubt) [Compound 189, 3-{[2-fluoro-3-(methylaminosulfonylamino)phenyl]methyl}-4-methyl-7-(1,3-oxazol-2-yloxy)-3,4-dihydro-2H-1-oxa-3,5-diazanaphthalen-2-one] | 50 to 500
CNS(=O)(=O)Nc1nccc(CN2C(=O)Oc3cc(Oc4ncco4)cnc3[C@@H]2C)c1F (stereo in doubt) [Compound 190, 3-{[3-fluoro-2-(methylaminosulfonylamino)-4-pyridyl]methyl}-4-methyl-7-(1,3-oxazol-2-yloxy)-3,4-dihydro-2H-1-oxa-3,5-diazanaphthalen-2-one] | 5 to 50
